# Tests used:
# Assay type in all cases: cell-based
# [1] = test system: Hela cells; assay: Proliferation test (XTT) on Hela cells; conditions: 0 to 1000 nM, 4 days
# Description: (§1) In order to check that the endocytosis of compound (7) DOX-GAL-AF is followed by release of the drug in the intracellular medium, proliferation tests were performed on Hela and A549 cells incubated in the presence of increasing concentrations (0 to 1000 nM) of doxorubicin (DOX), compound (5) (DOX-GAL) and compound (7) (DOX-GAL-AF) for 4 days.
# (§2) The cell proliferation kit II (XTT; Roche) was used to evaluate the cellular proliferation. The kit was used following the manufacturer's recommendations.
# (§3) In brief, 3×10^3 cells/well were placed on 96 culture plates and then in 100 μl of medium,
# (§4) The cells were cultured as previously indicated.
# (§5) The cells were cultured for 24 hours before addition of the compounds tested in the indicated concentration.
# (§6) After 4 days of treatment, 50 μl of XTT marking mixture were added to the well. The cells were then incubated for 4 hours at 37° C. before the absorbance was determined at 480 nm.
# (§7) In order to check that the enzymatic activation of compound (7) DOX-GAF-AF can effectively take place in the cellular environment, cytotoxicity tests were repeated in a culture medium previously supplemented with β-galactosidase (E. coli) (40 U·mL^−1) (curves in dotted lines).
# [2] = test system: A549 cells expressing little or none of these receptors; assay: Internalization monitored by confocal microscopy (doxorubicin fluorescence) in A549 cells; conditions: 10 μM
# Description: (§8) Compound (7) was tested on two cell lines, the HeLa cells, expressing the folic acid receptor (FR), and the A549 cells expressing little or none of these receptors.
# (§9) The HeLa and A549 cells were cultured in RPMI 1640 medium supplemented with 10% fetal calf serum (InVitrogen) at 37° C. in an atmosphere containing 5% CO2.
# (§10) For confocal microscopy experiments, the cells were cultured in a glass-bottomed bowl.
# (§11) The cells were incubated for 1 hour in the presence or absence of 1 μm of folic acid before being treated with either a buffer solution (control), or doxorubicin at 10 μM, or with a doxorubicin-galactose (DOX-GAL) conjugate, compound (5), in a concentration of 10 μM, or compound (7) (DOX-GAL-AF) in a concentration of 10 μM, or compound (7) in the presence of folic acid with respective concentrations of 10 μM.
# (§12) After treatment, the cells were rinsed with PBS and fixed with a PBS-3.7% formaldehyde solution for 20 minutes, at room temperature. […]
# (§13) The internalization by endocytosis of doxorobucin of the compounds (5) and (7) and of compound (7) in the presence of folic acid (AF) was monitored by confocal microscopy using the fluorescence of doxorubicin in the Hela cells and in the A549 cells.
# [3] = test system: HeLa cells, expressing the folic acid receptor (FR); assay: Internalization monitored by confocal microscopy (doxorubicin fluorescence) in HeLa cells; conditions: 10 μM
# Description: as §8, §9, §10, §11, §12, §13
# [4] = test system: A549 cells; assay: Proliferation test (XTT) on A549 cells; conditions: 0 to 1000 nM, 4 days
# Description: as §1, §2, §3, §4, §5, §6, §7
Compound,inhibition of proliferation (in words) [1],"internalization by endocytosis (fluorescence of doxorubicin, confocal microscopy) [2]","internalization by endocytosis (fluorescence of doxorubicin, confocal microscopy) [3]",toxicity / inhibition of proliferation (in words) [4]
COc1cccc2c1C(=O)c1c(O)c3c(c(O)c1C2=O)C[C@@](O)(C(=O)CO)C[C@@H]3O[C@H]1C[C@H](N)[C@H](O)[C@H](C)O1 [doxorubicin],inhibits the proliferation of these two lines,penetrates non-specifically through the membranes of the two cell lines,penetrates non-specifically through the membranes of the two cell lines,inhibits the proliferation of these two lines
C#CCC(OC(=O)NC1CC(O[C@H]2C[C@](O)(C(=O)CO)Cc3c(O)c4c(c(O)c32)C(=O)c2c(OC)cccc2C4=O)OC(C)C1O)c1ccc(O[C@@H]2OC(CO)[C@H](O)C(O)C2O)c([N+](=O)[O-])c1 (some centres unmarked) [Compound 5],ineffective on the two cell lines,not internalized in any of the cell lines,not internalized in any of the cell lines,ineffective on the two cell lines

# — US9000135B2, “Self-reactive arms and prodrugs comprising same” (Centre Nationale de Recherche Scientifique, priority 2010, dated 2015)
